Measured values taken from publication PMC10716780, “The multistep oxidation of cholesterol to pregnenolone by human cytochrome P450 11A1 is highly processive” (The Journal of Biological Chemistry, 2023).
Several values for one entry are separate records, joined by “and”; a condition that tells them apart may be missing. Equal entries are not always repeated.

What was measured:
human P450 11A1 [1] = molecular target: T1, human P450 11A1 (Homo sapiens, UniProt P05108); assay: Fluorescence titration of Alexa 488-Adx with P450 11A1 ± cholesterol; type: binding; parameters: M A S T R S P R P F N E I P S P G D N; Met-Ala (N-terminal start residues in place of the transit peptide and Ile40) (N); made in house; host or cells: E. coli (P450 11A1 in C41(DE3); Adx and AdR in E. coli)
T1 sequence (P05108 41-521 limits assumed): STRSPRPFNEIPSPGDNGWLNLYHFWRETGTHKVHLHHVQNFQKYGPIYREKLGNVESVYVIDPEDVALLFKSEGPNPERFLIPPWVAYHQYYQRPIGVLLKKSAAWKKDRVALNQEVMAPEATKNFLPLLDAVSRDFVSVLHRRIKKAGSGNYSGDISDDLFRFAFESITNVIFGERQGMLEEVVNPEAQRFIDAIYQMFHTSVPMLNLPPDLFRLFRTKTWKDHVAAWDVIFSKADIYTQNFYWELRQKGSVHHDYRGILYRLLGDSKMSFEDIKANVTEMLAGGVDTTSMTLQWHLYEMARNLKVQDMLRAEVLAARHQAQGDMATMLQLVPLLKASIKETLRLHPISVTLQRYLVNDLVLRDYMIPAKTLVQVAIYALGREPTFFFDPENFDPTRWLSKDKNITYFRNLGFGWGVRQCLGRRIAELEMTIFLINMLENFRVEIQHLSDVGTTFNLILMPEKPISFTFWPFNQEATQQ
T1 sequence (P00257 59-186 partner): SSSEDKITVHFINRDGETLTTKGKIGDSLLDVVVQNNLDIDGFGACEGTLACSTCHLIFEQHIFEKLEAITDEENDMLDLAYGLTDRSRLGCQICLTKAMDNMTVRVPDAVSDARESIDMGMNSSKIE
Method: Because Adx has been reported to stimulate the binding of P450 11A1 to its substrates ([12], [44]), we examined whether the binding of detergent-free P450 11A1 to Adx is enhanced by cholesterol, utilizing our fluorescently-labeled Adx construct (Alexa 488-Adx) ([45]). A 1:1 M complex of P450 11A1 and cholesterol was gradually titrated into a solution containing Alexa 488-Adx (50 nM), and the quenching of Adx fluorescence was monitored over the course of the reaction.
Figure 7 Effect of cholesterol on P450 11A1 binding to Adx.A, titration of P450 11A1 (0–400 nM) into Alexa 488-Adx (50 nM) gradually quenched the fluorophore and yielded a decrease in fluorescence output (between 500 and 600 nm). Spectra were collected after each addition of P450. B, normalized fluorescence (F/F0) of titrations of P450 11A1 with (▪, red) and without (•, black) cholesterol (equimolar). A 1:1 M complex of P450 and cholesterol was used as titrant, where indicated. […]
A previously described Alexa Fluor 488-labeled Adx construct and experimental protocol were used ([45]) to perform the fluorescence titration of P450 11A1 with Adx. […] P450 11A1 was gradually titrated (0–0.4 μM) into the cuvette (to a maximum of 2% (v/v)), and spectra were recorded using an OLIS DM-45 spectrofluorometer (1.24 mm slit width) with fluorophore excitation at 493 nm and scanning emission spectra from 500 to 600 nm. […]

human P450 11A1 [2] = molecular target: T1, human P450 11A1; assay: Kinetic isotope effect assay, disappearance of d0- and d3-cholesterol under single-turnover conditions; type: biochemical; parameters: M A S T R S P R P F N E I P S P G D N; Met-Ala (N-terminal start residues in place of the transit peptide and Ile40) (N); made in house; host or cells: E. coli (P450 11A1 in C41(DE3); Adx and AdR in E. coli); conditions: 5 μM P450, 5 μM sterol, exponential decay fit
Method: P450 11A1 incubations were performed under (low Adx) single-turnover conditions (5 μM P450, 5 μM cholesterol; see Experimental procedures) with d0- (authentic, unlabeled) and d3-cholesterol, and the disappearance of each was monitored by LC-atmospheric pressure chemical ionization-MS (m/z 369.3516 and 372.3705, respectively). In theory, if C-H bond breaking were rate-limiting in the initial hydroxylation then the rate of d3-cholesterol consumption would be slower relative to the d0 compound due to the increased strength of a C-D bond.
The kinetic isotope experiment was designed similarly to the benchtop experiment described above, but with some modifications. P450 11A1 (5 μM) was reconstituted with the redox partners AdR (10 μM) and Adx (5 μM) on ice (10 min) prior to dilution in potassium Hepes (50 mM, pH 7.4) and H2O and addition of d3-cholesterol substrate (5 μM). The mixture was preincubated (5 min) prior to initiation with NADPH (2.5 mM, from 25 mM in potassium Hepes (50 mM, pH 7.4)) thus bringing all components to their desired final concentrations. After completing the desired incubation time, an aliquot (500 μl) was removed from the incubation and added to vials containing CH2Cl2 (5 ml) and the vials were mixed with a vortex device and placed on ice. The quenched reactions were centrifuged (10^3g, 5 min, 23 °C) to separate layers, and the organic (bottom) layers were removed (4 ml) and transferred to fresh glass vials. The extraction process was repeated and the two extracts (2 × 4 ml) from each sample were combined to maximize product recovery. Samples (8 ml) were brought to dryness under a stream of nitrogen, and the dried residues were dissolved in CH3OH (25 μl) and transferred to autosampler vials for analysis.
Samples (held at 4 °C) were injected (10 μl) using a Waters Acquity UPLC system on a Acquity BEH octadecylsilane (C18) 2.1 mm × 50 mm (1.7 μm) UPLC column (held at 25 °C) with a flow rate of 0.5 ml min^−1 using an isocratic mobile phase of CH3CN (only). The column eluate was subjected to atmospheric pressure chemical ionization and analyzed using a Thermo Fisher Scientific LTQ XL Orbitrap mass spectrometer instrument operating in positive mode, scanning from m/z 100 to 500, with a resolution setting of 120,000. Data were processed using Xcalibur QualBrowser (Thermo Fisher Scientific) software (version 2.0.7; https://www.thermofishcer.com/order/catalog/product/OPTON).

**Q.** What does the source list for `CC(C)CCC[C@@H](C)[C@H]1CC[C@H]2[C@@H]3CC=C4C[C@@H](O)CC[C@]4(C)[C@H]3CC[C@]12C` [Cholesterol]?
**A.** stimulation of binding of P450 11A1 to Adx (human P450 11A1 [1]; equimolar cholesterol): ~5 fold and ~4.5 fold; change in Gibbs free energy of Adx binding (human P450 11A1 [1]; from the 4.5-fold change in Kd): < 1 kcal/mol; rate of disappearance (human P450 11A1 [2]): 0.035 s⁻¹
